Like-named read-outs stand apart in the source and are kept apart here.
What was measured:
[1] = cited from earlier work; for DILI category: clinical, from literature and product labels
[2] = test system: 3D human liver microtissues (hLiMT); assay: Cytotoxicity (cellular ATP) in 3D human liver microtissues, 5-6 days treatment; format: cell-based; settings: read-out: IC50 SHORT;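 note: Hanging-drop spheroids, seven-point dilution series, re-dosed on day 3, CellTiter-Glo 2.0 luminescence, normalized to 0.5 or 1% DMSO vehicle controls on the same plate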
[3] = ref Chen et al 2016 / Chen et al 2011; cited from earlier work
[4] = test system: primary human hepatocytes (PHH); assay: Cytotoxicity (cellular ATP, CellTiter-Glo) in 2D plated primary human hepatocytes, 48 h treatment; format: cell-based; settings: for IC50: read-out: Geomean IC50;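 for all read-outs here: 384-well plates, luminescence read-out, normalized to vehicle wells with 1% DMSO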
[5] = test system: 3D human liver microtissues (hLiMT); assay: Cytotoxicity (cellular ATP, CellTiter-Glo 2.0) in 3D human liver microtissues, 14 day repeat-dose treatment
[6] = cited from earlier work
[7] = Table 1, ref Garside et al. (2014)
[8] = clinical DILI severity category, 1-5
[9] = table S-4, ref Garside et al. 2014
[10] = Homo sapiens, hLiMT, 5/6 days, ATP content
[11] = Hepatocyte, 2D primary human hepatocytes (lot IZT), 48 h treatment, total cellular ATP content
[12] = Homo sapiens, 336 h, read-out: IC50 LONG
[13] = Homo sapiens, Hepatocyte, 336 h, read-out: Geomean IC50 [µM]
[14] = human Cmax total, used for IC50/Cmax
[15] = human total plasma Cmax, ref literature values

COc1ccccc1Oc1c(NS(=O)(=O)c2ccc(C(C)(C)C)cc2)nc(-c2ncccn2)nc1OCCO [Bosentan]
DILI severity category [1, 7]: 1: Severe clinical DILI (N = 23)
DILI severity category [1, 8]: 1. Severe Clinical DILI
DILI category ([1]; ref Garside et al. 2014): 1. Severe Clinical DILI
DILI severity category [1, 9]: 1
IC50 [2, 10]: 100 µM
FDA DILI Classification DILI severity score [3]: 7
LTKB DILI classification [3]: most DILI concern
IC50 [4, 11]: > 200 µM
cytotoxicity IC50 detected ([4]; PHH 48 h, in words): no IC50 values were detected
IC50 [5, 12]: 93 µM
IC50 [5, 13]: ~93 µM

CN(C)CCC(c1ccc(Cl)cc1)c1ccccn1 (stereo not shown) [Chlorpheniramine]
Cmax [6, 14]: 0.044 µM
Cmax [6, 15]: 0.0437 µM
DILI severity category [1, 7]: 3: Low clinical DILI concern (N = 23)
DILI severity category [1, 8]: 3. Low Clinical DILI Concern
DILI category ([1]; ref Garside et al. 2014): 3. Low Clinical DILI Concern
DILI severity category [1, 9]: 3
IC50 [2, 10]: 100 µM
FDA DILI Classification DILI severity score [3]: 0
LTKB DILI classification [3]: no DILI concern

CC(C)C(=O)Nc1ccc([N+](=O)[O-])c(C(F)(F)F)c1 [Flutamide]
Cmax [6, 14]: 5.4 µM
Cmax [6, 15]: 5.43 µM
DILI severity category [1, 7]: 1: Severe clinical DILI (N = 23)
DILI severity category [1, 8]: 1. Severe Clinical DILI
DILI category ([1]; ref Garside et al. 2014): 1. Severe Clinical DILI
DILI severity category [1, 9]: 1
IC50 [2, 10]: 12.5 µM
FDA DILI Classification DILI severity score [3]: 8
LTKB DILI classification [3]: most DILI concern
IC50 [4, 11]: 73 µM
IC50 [5, 13]: 25.7 µM
change of IC50 with prolonged exposure ([5]; hLiMT 14 days versus 5-6 days): higher IC50 value

CC(=O)N1CCN(c2ccc(OCC3COC(Cn4ccnc4)(c4ccc(Cl)cc4Cl)O3)cc2)CC1 (stereo not shown) [Ketoconazole]
Cmax [6, 14]: 11.3 µM
Cmax [6, 15]: 11.3 µM
DILI severity category [1, 7]: 1: Severe clinical DILI (N = 23)
DILI severity category [1, 8]: 1. Severe Clinical DILI
DILI category ([1]; ref Garside et al. 2014): 1. Severe Clinical DILI
DILI severity category [1, 9]: 1
IC50 [2, 10]: 8.5 µM
FDA DILI Classification DILI severity score [3]: 8
LTKB DILI classification [3]: most DILI concern
IC50 [4, 11]: 47.2 µM
IC50 [5, 13]: 4.6 µM

CN1C[C@H](CNC(=O)OCc2ccccc2)C[C@@H]2c3cccc4c3c(cn4C)C[C@H]21 [Metergoline]
Cmax [6, 14]: 0.07 µM
Cmax [6, 15]: 0.07 µM
IC50 [2, 10]: 12.3 µM
IC50 [4, 11]: 20.1 µM
classification at 100 μM IC50 threshold ([4]; PHH 48 h): false positives
IC50 [5, 13]: 7.8 µM
classification at 100 μM IC50 threshold ([5]; hLiMT 14 days): false positives

CN(C)C(=N)N=C(N)N [Metformin]
Cmax [6, 14]: 7.74 µM
Cmax [6, 15]: 7.74 µM
DILI severity category [1, 7]: 3: Low clinical DILI concern (N = 23)
DILI severity category [1, 8]: 3. Low Clinical DILI Concern
DILI category ([1]; ref Garside et al. 2014): 3. Low Clinical DILI Concern
DILI severity category [1, 9]: 3
IC50 [2, 10]: 100 µM
FDA DILI Classification DILI severity score [3]: 0
LTKB DILI classification [3]: less DILI concern
IC50 [4, 11]: > 100 µM
IC50 [5, 13]: > 100 µM

CN(Cc1cnc2nc(N)nc(N)c2n1)c1ccc(C(=O)N[C@@H](CCC(=O)O)C(=O)O)cc1 [Methotrexate]
Cmax [6, 14]: 5 µM
Cmax [6, 15]: 5 µM
DILI severity category [1, 7]: 1: Severe clinical DILI (N = 23)
DILI severity category [1, 8]: 1. Severe Clinical DILI
DILI category ([1]; ref Garside et al. 2014): 1. Severe Clinical DILI
DILI severity category [1, 9]: 1
IC50 [2, 10]: 100 µM
FDA DILI Classification DILI severity score [3]: 3
LTKB DILI classification [3]: most DILI concern
IC50 [4, 11]: > 100 µM
IC50 [5, 13]: > 100 µM

O=C1CN(/N=C/c2ccc([N+](=O)[O-])o2)C(=O)N1 [Nitrofurantoin]
Cmax [6, 14]: 21 µM
Cmax [6, 15]: 21 µM
DILI severity category [1, 7]: 2: High clinical DILI concern (N = 23)
DILI severity category [1, 8]: 2. High Clinical DILI Concern
DILI category ([1]; ref Garside et al. 2014): 2. High Clinical DILI Concern
DILI severity category [1, 9]: 2
IC50 [2, 10]: 100 µM
FDA DILI Classification DILI severity score [3]: 8
LTKB DILI classification [3]: most DILI concern

Fc1ccc([C@@H]2CCNC[C@H]2COc2ccc3c(c2)OCO3)cc1 [Paroxetine]
Cmax [6, 14]: 0.2 µM
Cmax [6, 15]: 0.2 µM
DILI severity category [1, 7]: 2: High clinical DILI concern (N = 23)
DILI severity category [1, 8]: 2. High Clinical DILI Concern
DILI category ([1]; ref Garside et al. 2014): 2. High Clinical DILI Concern
DILI severity category [1, 9]: 2
IC50 [2, 10]: 21.3 µM
FDA DILI Classification DILI severity score [3]: 8
LTKB DILI classification [3]: less DILI concern
IC50 [4, 11]: 15.3 µM
IC50 [5, 13]: 12 µM

CC1(C)S[C@@H]2[C@H](NC(=O)COc3ccccc3)C(=O)N2[C@H]1C(=O)O [Penicillin V]
Cmax [6, 14]: 14.3 µM
Cmax [6, 15]: 14.3 µM
IC50 [2, 10]: 100 µM
IC50 [4, 11]: > 100 µM
IC50 [5, 13]: > 100 µM

[H]/N=C(/N)N/C(=N/[H])NCCc1ccccc1 [Phenformin]
Cmax [6, 14]: 0.63 µM
Cmax [6, 15]: 0.63 µM
DILI severity category [1, 7]: 3: Low clinical DILI concern (N = 23)
DILI severity category [1, 8]: 3. Low Clinical DILI Concern
DILI category ([1]; ref Garside et al. 2014): 3. Low Clinical DILI Concern
DILI severity category [1, 9]: 3
IC50 [2, 10]: 7.7 µM
IC50 [4, 11]: 5.1 µM
IC50 [5, 12]: 12.5 µM
IC50 [5, 13]: < 12.5 µM

CCN(CC)CCCC(C)Nc1c2ccc(Cl)cc2nc2ccc(OC)cc12 (stereo not shown) [Quinacrine]
Cmax [6, 15]: 258 µM
IC50 [2, 10]: 3.7 µM
IC50 [4, 11]: 7.3 µM
IC50 [5, 12]: 2 µM
IC50 [5, 13]: > 2 µM

CN[C@@H]1[C@H](O)[C@H](NC)[C@H]2O[C@@]3(O)C(=O)C[C@@H](C)O[C@H]3O[C@@H]2[C@H]1O [Spectinomycin]
Cmax [6, 14]: 323 µM
Cmax [6, 15]: 323 µM
DILI severity category [1, 7]: 3: Low clinical DILI concern (N = 23)
DILI severity category [1, 8]: 3. Low Clinical DILI Concern
DILI category ([1]; ref Garside et al. 2014): 3. Low Clinical DILI Concern
DILI severity category [1, 9]: 3
IC50 [2, 10]: 100 µM
FDA DILI Classification DILI severity score [3]: 3
LTKB DILI classification [3]: Ambiguous DILI concern
IC50 [4, 11]: > 100 µM
IC50 [5, 13]: > 100 µM

Cn1c(=O)c2[nH]cnc2n(C)c1=O [Theophylline]
Cmax ([6]; human, in vivo): 83.8 µM
IC50 ([2]; Homo sapiens): 100 µM
IC50 ([4]; Homo sapiens, Hepatocyte, 48 h): > 100 µM
IC50 [5, 13]: > 100 µM

CC1=C(/C=C/C(C)=C/C=C/C(C)=C/C(=O)O)C(C)(C)CCC1 [Tretinoin]
Cmax [6, 14]: 1.33 µM
Cmax [6, 15]: 1.33 µM
DILI severity category [1, 7]: 3: Low clinical DILI concern (N = 23)
DILI severity category [1, 8]: 3. Low Clinical DILI Concern
DILI category ([1]; ref Garside et al. 2014): 3. Low Clinical DILI Concern
DILI severity category [1, 9]: 3
IC50 [2, 10]: 29.2 µM
FDA DILI Classification DILI severity score [3]: 3
LTKB DILI classification [3]: Ambiguous DILI concern
IC50 [4, 11]: > 100 µM
IC50 [5, 12]: 17 µM
IC50 [5, 13]: > 17 µM

CCOC(=O)CN[C@@H](C(=O)N1CC[C@H]1C(=O)NCc1ccc(/C(N)=N\O)cc1)C1CCCCC1 [Ximelagatran]
Cmax [6, 14]: 0.45 µM
Cmax [6, 15]: 0.45 µM
IC50 [2, 10]: 200 µM
IC50 [4, 11]: > 200 µM
IC50 ([5]; Homo sapiens, 336 h, read-out: IC50 (ATP-assay)): 121 µM
IC50 [5, 12]: 151 µM
IC50 [5, 13]: ~151 µM

C[C@]12CC[C@@H]3c4ccc(O)cc4CC[C@H]3[C@@H]1CC[C@@H]2O [beta-Estradiol]
Cmax [6, 14]: 0.0006 µM
Cmax [6, 15]: 0.0006 µM
IC50 ([2]; hLiMT, 5/6 days, ATP content): 42 µM
IC50 ([4]; 2D primary human hepatocytes (lot IZT), 48 h treatment, total cellular ATP content): > 100 µM
IC50 ([5]; read-out: Geomean IC50, decrease in total cellular ATP content, hLiMT treated for 14 days, hepatocyte lot IZT (except Dexamethasone) co-cultured with NPCs, n=1 or geometric mean): 13.5 µM

Reference: publication PMC5515971, “Utility of spherical human liver microtissues for prediction of clinical drug-induced liver injury” (Archives of Toxicology, 2017)
